One block for each molecule: values may come before it.
Columns and labels:
Male SD rats [1] = test: Inhibitory action for disappearance of enzyme in myocardial cells after ischemia and reperfusion (Evaluation Example 6); type: in vivo, rat; conditions: for Mortality (%) / CPK activity (U/mg protein) (Non-ischemia territory)-(ischemia and reperfusion territory): 1.0 mg/kg intravenously, ligation 20 minutes, reperfusion 2 hours; for CPK activity (U/mg protein) (Non-ischemia territory)-(ischemia and reperfusion territory): left ventricle, average value ± standard error
Method: Male SD rats of 7-12 week age were anesthetized with pentobarbital and subjected to thoracotomy under artificial respiration. The left anterior descending coronary artery of each rat was ligated for 20 minutes and then subjected to reperfusion for 2 hours. Then, the heart of each rat was enucleated and the left ventricle was separated. The left ventricle was homogenized to measure the activity of creatine phosphokinase (CPK) remaining in the ventricle. Each test compound was intravenously administered 5 minutes before the obstruction of coronary artery. For comparison, the same evaluation was conducted also on the 4-(4-methoxy-3-sulfophenyl)-5-phenyl-3H-1,2-dithiole-3-thione sodium salt described in Bull. […] Chim. […] In Table 18 are shown the differences in CPK activity between non-ischemia territory and ischemia and reperfusion territory of left ventricle, of test compounds and control.
In Table 18, CPK activity indicates (average value ± standard error), and n indicates the number of tested rats.

peroxylipid [2] = test: Inhibitory action for formation of peroxylipid (Evaluation Example 4; MDA, thiobarbituric acid method); type: biochemical; conditions: rat brain homogenate, 37°C for 60 minutes; test compound 10⁻⁴ M; n=2
Method: (§1) Male SD rats of 7-10 week age were anesthetized with pentobarbital and then subjected to dehematization. Thereafter, their brains were enucleated. The brain tissues were homogenized with a phosphate buffer solution with ice-cooling. Each of the 5% homogenates was incubated at 37°C for 60 minutes to form malondialdehyde (MDA). The amount of MDA was determined by measuring the absorbance at 535 nm according to the thiobarbituric acid method. Using this MDA amount (a) and a control value (b) (a MDA amount when no test compound was added), the inhibition (%) for formation of peroxylipid, of test compound was calculated from the following formula. Inhibition (%) for formation of peroxylipid = [(b-a)/b]x100 [formula] Each test compound was added to the homogenate before the incubation.
(§2) Incidentally, the concentration of each test compound was 10⁻⁴ M, and the number of rats used for each test compound was n=2.

Male SD rats [3] = test: Inhibitory action of reperfusion arrhythmia (Evaluation Example 5; coronary artery ligation 5 minutes, reperfusion 10 minutes); type: in vivo, rat; conditions: 1.0 mg/kg intravenously 5 minutes before obstruction of coronary artery
Method: (§3) Male SD rats of 8-12 week age were anesthetized with pentobarbital and subjected to thoracotomy under artificial respiration. The left anterior descending coronary artery of each rat was ligated for 5 minutes and then subjected to reperfusion for 10 minutes. An electrocardiograph in standard bipolar limb lead II was recorded for each rat to examine the occurrence of ventricular arrhythmia. Each test compound was intravenously administered 5 minutes before the obstruction of coronary artery. For comparison, the same evaluation was conducted also on the 5-(4-methoxy-3-sulfophenyl)-3H-1,2-dithiole-3-thione sodium salt described in Eur. J. Med. Chem. 15, 405 (1980). [drawing 95]

[4] = Solubility in water (Test Example 1); type: physicochemical; conditions: 5% aqueous glucose solution, saline or isotonic
Method: (§4) Solubility in 5% aqueous glucose solution was measured.

peroxylipid [5] = test: Inhibitory action for formation of peroxylipid (Evaluation Example 1; MDA, thiobarbituric acid method); type: biochemical; conditions: rat brain homogenate, 37°C for 60 minutes; test compound 10⁻⁴ M; n=2
Method: as §1, §2

[6] = Solubility in water (Test Example 2); type: physicochemical; conditions: 5% aqueous glucose solution, saline or isotonic
Method: as §4

Male SD rats [7] = test: Inhibitory action for reperfusion arrhythmia (Evaluation Example 2; coronary artery ligation 5 minutes, reperfusion 10 minutes); type: in vivo, rat; conditions: 1.0 mg/kg intravenously 5 minutes before obstruction of coronary artery
Method: as §3, with “A” for “Each”, “93]” for “95]”

Male SD rats [8] = test: Inhibitory action for disappearance of enzyme in myocardial cells after ischemia and reperfusion (Evaluation Example 3); type: in vivo, rat; conditions: 1.0 mg/kg intravenously; ligation 20 minutes, reperfusion 2 hours; left ventricle; average value ± standard error
Method: Male SD rats of 7-12 week age were anesthetized with pentobarbital and subjected to thoracotomy under artificial respiration. The left anterior descending coronary artery of each rat was ligated for 20 minutes and then subjected to reperfusion for 2 hours. Then, the heart of each rat was enucleated and the left ventricle was separated. The left ventricle was homogenized to measure the activity of creatine phosphokinase (CPK) remaining in the ventricle. A test compound was intravenously administered 5 minutes before the obstruction of coronary artery. In Table 15 are shown the differences in CPK activity between non-ischemia territory and ischemia and reperfusion territory of left ventricle, of test compound and control.
In Table 15, CPK activity indicates (average value ± standard error), and n indicates the number of tested rats.

SMILES: O=S(=O)([O-])c1ccc(Cc2c(-c3ccccc3)ssc2=S)cc1.[Na+] [Production Example 39, 5-phenyl-4-(4-sulfobenzyl)-3H-1,2-dithiole-3-thione sodium salt]
Mortality (%) (Male SD rats [1]): 12.5% | CPK activity (U/mg protein) (Non-ischemia territory)-(ischemia and reperfusion territory) (Male SD rats [1]): 0.84 ± 0.18 (n=8) U/mg protein | Inhibition (%) (peroxylipid [2]): 100% | Mortality (%) (Male SD rats [3]): 0/4 (0.0) % | VF incidence (VF rats)/(tested rats) (%) (Male SD rats [3]): 1/4 (25.0) %

solubility [4]: ≥ 10000 µg/mL
SMILES: CCOc1cc2c(cc1S(=O)(=O)[O-])-c1ssc(=S)c1CC2.[Na+] [Production Example 5, 4,5-dihydro-7-ethoxy-8-sulfo-3H-naphtho-[1,2-c]-1,2-dithiol-3-thione sodium salt]
Inhibition (%) (peroxylipid [5]): 100%

SMILES: CCCCCCc1ssc(=S)c1Cc1ccc(OC)c(S(=O)(=O)[O-])c1.[Na+] [Production Example 26, 5-hexyl-4-(4-methoxy-3-sulfobenzyl)-3H-1,2-dithiole-3-thione sodium salt]
Mortality (%) (Male SD rats [1]): 33.3% | CPK activity (U/mg protein) (Non-ischemia territory)-(ischemia and reperfusion territory) (Male SD rats [1]): 0.70 ± 0.23 (n=9) U/mg protein | solubility [6]: ≥ 10000 µg/mL | Inhibition (%) (peroxylipid [2]): 100% | Mortality (%) (Male SD rats [3]): 2/6 (33.3) % | VF incidence (VF rats)/(tested rats) (%) (Male SD rats [3]): 3/6 (50.0) %

solubility [4]: ≥ 10000 µg/mL
SMILES: O=S(=O)([O-])c1ccc2c(c1)-c1ssc(=S)c1CO2.[Na+] [Production Example 13, 8-sulfo-3H,4H-benzopyrano[4,3-c]-1,2-dithiole-3-thione sodium salt]
Inhibition (%) (peroxylipid [5]): 100%

solubility [4]: ≥ 10000 µg/mL
SMILES: COc1cc2c(cc1S(=O)(=O)[O-])CCc1c-2ssc1=S.[Na+] [Production Example 3, 4,5-dihydro-8-methoxy-7-sulfo-3H-naphtho-[1,2-c]-1,2-dithiole-3-thione sodium salt]
Inhibition (%) (peroxylipid [5]): 100%

SMILES: COc1ccc(-c2c(-c3ccc(C)cc3)ssc2=S)cc1S(=O)(=O)[O-].[Na+] [Production Example 34, 4-(4-methoxy-3-sulfophenyl)-5-(p-tolyl)-3H-1,2-dithiole-3-thione sodium salt]
Mortality (%) (Male SD rats [1]): 40.0% | CPK activity (U/mg protein) (Non-ischemia territory)-(ischemia and reperfusion territory) (Male SD rats [1]): 0.81 ± 0.43 (n=10) U/mg protein | solubility [6]: ≥ 10000 µg/mL | Inhibition (%) (peroxylipid [2]): 100% | Mortality (%) (Male SD rats [3]): 2/7 (28.6) % | VF incidence (VF rats)/(tested rats) (%) (Male SD rats [3]): 3/7 (42.9) %

SMILES: COc1cc2c(cc1S(=O)(=O)[O-])-c1ssc(=S)c1CC2.[Na+] [Production Example 4, 4,5-dihydro-7-methoxy-8-sulfo-3H-naphtho[1,2-c]-1,2-dithiole-3-thione sodium salt]
solubility [4]: ≥ 10000 µg/mL | Mortality (%) (Male SD rats [7]): 2/5 (40.0) % | VF incidence (VF rats)/(tested rats) (%) (Male SD rats [7]): 2/5 (40.0) % | Inhibition (%) (peroxylipid [5]): 100% | CPK activity (U/mg protein) (Non-ischemia territory)-(ischemia and reperfusion territory) (Male SD rats [8]): 1.36 ± 0.34 (n=7) U/mg protein

solubility [4]: ≥ 10000 µg/mL
SMILES: COc1cc2c(cc1S(=O)(=O)[O-])OCc1c-2ssc1=S.[Na+] [Production Example 12, 8-methoxy-7-sulfo-3H,4H-benzopyrano-[4,3-c]-1,2-dithiole-3-thione sodium salt]
Inhibition (%) (peroxylipid [5]): 100%

SMILES: COc1ccc(-c2c(-c3ccccc3)ssc2=S)cc1S(=O)(=O)[O-].[Na+] [Compound in literature, 4-(4-methoxy-3-sulfophenyl)-5-phenyl-3H-1,2-dithiole-3-thione sodium salt, reference compound]
effect on disappearance of creatine phosphokinase from myocardial cells and on rat mortality (Male SD rats [1]; result in words, versus control): no significant effect
